Like-named read-outs stand apart in the source and are kept apart here.
Legend:
[1] = tested on: isolation-induced aggressiveness in mice; test: Inhibition of isolation-induced aggressiveness in mice (anti-aggressive and anxiety-relieving activity); type: in vivo; conditions: Mus musculus, oral, isolated mice, 50% reduction of aggressive behavior
Protocol: Prior to carrying out the test, the mice are kept in strict isolation in single cages for a period of 4 weeks. After this period of isolation, mice which have been kept isolated spontaneously attack other mice which are introduced into their cage and had not been previously isolated. The test compounds are orally administered to the isolated mice and after a period of 30 minutes or 60 minutes after application, the dose which leads to a 50% reduction of the aggressive behavior is determined (according to a modified method described by Weischer and Opitz, Arch. int. Pharmacodyn. 195, 252 (1972)). The results which are obtained in this test are a valid indication of the activity of the tested compounds in relieving anxiety and stress-induced tensions.

[2] = Acute 7-day toxicity in mice (LD50); conditions: mouse, in vivo, white NMRI-mice not fed
Protocol: The acute 7-day-toxicity in white NMRI-mice is determined after administration of a single dose of the test compound per os or i.p. to the mice which had not been fed. The calculation of the LD50 is carried out by probitanalysis by means of electronic data processing (see L. Cavelli-Sforza, Gustav Fischer-Verlag, Stuttgart, (1964), Grundbegriffe der Biometrie, p. 153).

[3] = tested on: pentetrazole-induced convulsions; test: Anti-convulsive activity against pentetrazole-induced spasms; type: in vivo; conditions: Mus musculus; oral, mice; 100 mg/kg pentetrazole s.c. 60 minutes after application; observed 45 minutes; read-out: Inhibition of Pentetrazole-induced convulsions ED50
Protocol: The protective effect of the test compounds against convulsion is determined after oral application to groups of six (6) mice each. 60 minutes after application of the test compounds, a doses of 100 mg/kg of pentetrazole is subcutaneously injected. The occurrance of clonic and tonic convulsions is observed during a total period of 45 minutes. the protective effect of the test compounds against convulsion is determined by comparison with simultaneously performed tests in control-animals. The effective dose ED50 is calculated from the probitlogarithmic dosage curves (according to a modified method disclosed by J. E. Blum et al, Arzneimittel-Forsch. 23, 377 (1973)).
The results which are obtained according to the above method, provide an indication of the anti-convulsive activity of the test compounds. In the pharmacological art, it is well-known that this anti-convulsive activity in animals is an important criterion for evaluating the clinical tranquilizer activity of compounds (see A. Suria and E. Costa, Journal de Pharmacologie, Suppl. No. 1, 5, 94 (1974) and G. Zbinden and L. O. Randall, Advances in Pharmacol. 5, 257, (1967)). The test results given in Table II show a clear superiority of the compounds according to the present invention as compared to chlordiazepoxide.

[4] = tested on: hexobarbital-induced sleep in mice; test: CNS-depressant properties: prolongation of hexobarbital-induced sleep in mice; type: in vivo; conditions: Mus musculus, 0.5 h, oral, 64 mg/kg hexobarbital i.v. 30 minutes after application, 50% of animals with side-posture 4 times as long as control
Protocol: The test compounds are orally applied to mice. Additionally, a dose of 64 mg/kg of hexobarbital is injected, i.v., into the animals 30 minutes after application of the test compound. The point of time at which the animals lie down on their side and the duration of this side-posture are determined and are compared with the postural behavior of animals which are treated only with hexobarbital. The ED50 is defined as the dose which causes 50% of the animals to maintain the side-wise posture for a period of time which is 4 times as long as the period of time during which the control animals remain in their side-wise lying posture (see J. W. Kemp, M. Tannhaeuser and E. A. Swinyard, Arch. int. Pharmacodyn. 193 (1971), p. 37-47).

[5] = 0.5 h, 30 minutes after application, read-out: Inhibition of isolation-induced aggressiveness in mice ED50 (30')
[6] = 1 h, 60 minutes after application, read-out: Inhibition of isolation-induced aggressiveness in mice ED50 (60')
[7] = ip, single dose i.p., read-out: LD50 i.p.
[8] = po, single dose per os, read-out: LD50 p.o.

Structure (SMILES) | ED50 [1, 5] | ED50 [1, 6] | LD50 at 168 h [2, 7] | LD50 at 168 h [2, 8] | ED50 [3] | ED50 [4]
CN1C(=CC(N)=O)CN=C(c2ccccc2F)c2cc(Br)ccc21 [Compound No. 6, 7-bromo-1-methyl-2-carbamoylmethylene-5-(2'-fluorophenyl)-1,3-dihydro-2H-1,4-benzodiazepine] | 4.8 mg/kg | 5.7 mg/kg | 574 mg/kg | > 1470 mg/kg | 0.4 mg/kg | 2.6 mg/kg
CN1C(=CC(N)=O)CN=C(c2ccccc2Cl)c2cc([N+](=O)[O-])ccc21 [Compound No. 7, 7-nitro-1-methyl-2-carbamoylmethylene-5-(2'-chlorophenyl)-1,3-dihydro-2H-1,4-benzodiazepine] | – | – | – | > 1470 mg/kg | 1 mg/kg | 2.5 mg/kg
CN1C(=CC(N)=O)CN=C(c2ccccc2)c2cc(Cl)ccc21 [Compound No. 1, 7-chloro-1-methyl-2-carbamoylmethylene-5-phenyl-1,3-dihydro-2H-1,4-benzodiazepine] | 12.2 mg/kg | 9.6 mg/kg | 288 mg/kg | > 1470 mg/kg | 2.4 mg/kg | 3.2 mg/kg
CN1C(=CC(N)=O)CN=C(c2ccccc2C(F)(F)F)c2cc(Cl)ccc21 [Compound No. 4, 7-chloro-1-methyl-2-carbamoylmethylene-5-(2'-trifluoromethylphenyl)-1,3-dihydro-2H-1,4-benzodiazepine] | 31.1 mg/kg | 31.1 mg/kg | 287 mg/kg | > 1470 mg/kg | 0.3 mg/kg | 3.1 mg/kg
CN1C(=CC(N)=O)CN=C(c2ccccc2F)c2cc(Cl)ccc21 [Compound No. 3, 7-chloro-1-methyl-2-carbamoylmethylene-5-(2'-fluorophenyl)-1,3-dihydro-2H-1,4-benzodiazepine] | 2.1 mg/kg | 3.9 mg/kg | 572 mg/kg | > 1470 mg/kg | 0.4 mg/kg | 1.6 mg/kg
CN1C(=CC(N)=O)CN=C(c2ccccc2Cl)c2cc(Cl)ccc21 [Compound No. 2, 7-chloro-1-methyl-2-carbamoylmethylene-5-(2'-chlorophenyl)-1,3-dihydro-2H-1,4-benzodiazepine] | 2.2 mg/kg | 3.4 mg/kg | 410 mg/kg | > 1000 mg/kg | 0.1 mg/kg | 5 mg/kg
CNC1=Nc2ccc(Cl)cc2C(c2ccccc2)=[N+]([O-])C1 [comparison, 7-chloro-2-methylamino-5-phenyl-3H-1,4-benzodiazepine-4-oxide, reference compound] | 60 mg/kg | 47 mg/kg | 300 mg/kg | 903 mg/kg | 5 mg/kg | 6 mg/kg
CN1C(=CC(N)=O)CN=C(c2ccccc2Cl)c2cc(Br)ccc21 [Compound No. 5, 7-bromo-1-methyl-2-carbamoylmethylene-5-(2'-chlorophenyl)-1,3-dihydro-2H-1,4-benzodiazepine] | 5.4 mg/kg | 4.6 mg/kg | > 1600 mg/kg | > 1470 mg/kg | 0.3 mg/kg | 1.3 mg/kg

— patent US4170649A, “1,4-Benzodiazepine derivatives, pharmaceutical compositions thereof, and process for their preparation” (Kali-Chemie Pharma GmbH, priority 1977, dated 1979)
